Assay results reported in patent US20230085307A1, “PYRIDAZINONE COMPOUND AND HERBICIDE” (NISSAN CHEMICAL CORPORATION, priority 2019, published 2023).

Columns and labels:
late watergrass = assay: Test Example 1: herbicidal activity, application before weed generation under submerged conditions (Table 16, symbol A); format: in vivo, late watergrass (Echinochloa oryzicola); conditions: amount of applied herbicide 320 g/ha
Summary of the method: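 Emulsion formulation, water-diluted to set dose, was put onto the flooded surface (4 cm depth, alluvial soil) the same day weeds were sown and 2.5-leaf rice transplanted. After 3 weeks at 25-30 °C under glass, each species was rated 0 (≤5% kill) to 5 (≥90% kill).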

oval-leafed pondweed = assay: Test Example 2: herbicidal activity, application during weed generation under submerged conditions (Table 17, symbol C); format: in vivo, oval-leafed pondweed (Monochoria vaginalis); conditions: AAH 320 g/ha; application during weed generation, submerged conditions
Summary of the method: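 Herbicide emulsion, diluted with water to the chosen amount, is applied onto 4 cm floodwater over alluvial soil where the weeds were co-sown and raised at 25–30° C. Application timing: 1–2 leaves. Assessment: three weeks afterwards.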

barnyard grass [1] = assay: Test Example 3: herbicidal effect by foliage application, Wagner pot (Table 18, symbol H); format: in vivo, barnyard grass (Echinochloa crus-galli); conditions: amount of applied herbicide 320 g/ha
Summary of the method: (§1)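 Plants were sown in alluvial soil held under 0.1–0.5 cm standing water and grown 14 days in a greenhouse at 25–30 °C. An emulsifiable formulation, water-diluted to the set dose, was then sprayed onto the foliage, and effects were scored three weeks later using previously defined criteria.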

Chinese sprangletop = assay: Test Example 3: herbicidal effect by foliage application, Wagner pot (Table 18, symbol D); format: in vivo, chinese sprangletop (Leptochloa chinensis); conditions: amount of applied herbicide 320 g/ha
Summary of the method: as §1

southern crabgrass [2] = assay: Test Example 4: herbicidal effect by soil treatment (Table 19, symbol F); format: in vivo, southern crabgrass (Digitaria ciliaris); conditions: amount of applied herbicide 320 g/ha
Summary of the method: (§2)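 Pre-emergence style soil spray: seeds under ~1.5 cm sterilized diluvial soil received a uniform coat of emulsion diluted to the predetermined herbicide amount. Greenhouse 25–30° C; readout at week three on previously defined criteria.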

green foxtail [3] = assay: Test Example 4: herbicidal effect by soil treatment (Table 19, symbol G); format: in vivo, green foxtail (Setaria viridis); conditions: amount of applied herbicide 320 g/ha
Summary of the method: as §2

blackgrass [4] = assay: Test Example 4: herbicidal effect by soil treatment (Table 19, symbol J); format: in vivo, blackgrass (Alopecurus myosuroides); conditions: amount of applied herbicide 320 g/ha
Summary of the method: as §2

windgrass = assay: Test Example 4: herbicidal effect by soil treatment (Table 19, symbol L); format: in vivo, windgrass (Apera spica-venti); conditions: amount of applied herbicide 320 g/ha
Summary of the method: as §2

redroot pigweed [5] = assay: Test Example 4: herbicidal effect by soil treatment (Table 19, symbol N); format: in vivo, redroot pigweed (Amaranthus retroflexus); conditions: amount of applied herbicide 320 g/ha
Summary of the method: as §2

chickweed = assay: Test Example 4: herbicidal effect by soil treatment (Table 19, symbol P); format: in vivo, common chickweed (Stellaria media); conditions: amount of applied herbicide 320 g/ha
Summary of the method: as §2

southern crabgrass [6] = assay: Test Example 5: herbicidal effect by foliage application, plastic box (Table 20, symbol F); format: in vivo, southern crabgrass (Digitaria ciliaris); conditions: foliage application; for F: southern crabgrass, herbicidal effect (criteria 0-5): AAH 320 g/ha, evaluated three weeks after application
Summary of the method: (§3)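 Plants were sown into sterilized diluvial soil under about 1.5 cm cover and kept in a greenhouse at 25° C. to 30° C. Fourteen days on, foliage received an even spray of the diluted emulsion. Herbicidal or crop effect was judged three weeks afterwards.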

green foxtail [7] = assay: Test Example 5: herbicidal effect by foliage application, plastic box (Table 20, symbol G); format: in vivo, green foxtail (Setaria viridis); conditions: foliage application; for G: green foxtail, herbicidal effect (criteria 0-5): AAH 320 g/ha, evaluated three weeks after application
Summary of the method: as §3

blackgrass [8] = assay: Test Example 5: herbicidal effect by foliage application, plastic box (Table 20, symbol J); format: in vivo, blackgrass (Alopecurus myosuroides); conditions: foliage application; for J: blackgrass, herbicidal effect (criteria 0-5): AAH 320 g/ha, evaluated three weeks after application
Summary of the method: as §3

redroot pigweed [9] = assay: Test Example 5: herbicidal effect by foliage application, plastic box (Table 20, symbol N); format: in vivo, redroot pigweed (Amaranthus retroflexus); conditions: foliage application; for N: redroot pigweed, herbicidal effect (criteria 0-5): AAH 320 g/ha, evaluated three weeks after application
Summary of the method: as §3

persian speedwell = assay: Test Example 5: herbicidal effect by foliage application, plastic box (Table 20, symbol R); format: in vivo, Persian speedwell (Veronica persica); conditions: foliage application; for R: persian speedwell, herbicidal effect (criteria 0-5): AAH 320 g/ha, evaluated three weeks after application
Summary of the method: as §3

barnyard grass [10] = assay: Test Example 4: herbicidal effect by soil treatment (Table 19, symbol H); format: in vivo, barnyard grass (Echinochloa crus-galli); conditions: amount of applied herbicide 320 g/ha
Summary of the method: as §2

[11] = 320 g/ha, three weeks after application

Row | Structure (SMILES) | Herbicidal effect, A: late watergrass (late watergrass) | herbicidal effect rating, C: oval-leafed pondweed (oval-leafed pondweed) | herbicidal effect on H: barnyard grass (barnyard grass [1]) | herbicidal effect on D: Chinese sprangletop (Chinese sprangletop) | herbicidal effect, F: southern crabgrass (southern crabgrass [2]) | herbicidal effect, G: green foxtail (green foxtail [3]) | herbicidal effect, J: blackgrass (blackgrass [4]) | herbicidal effect, L: windgrass (windgrass) | herbicidal effect, N: redroot pigweed (redroot pigweed [5]) | herbicidal effect, P: chickweed (chickweed) | F: southern crabgrass, herbicidal effect (criteria 0-5) (southern crabgrass [6]) | G: green foxtail, herbicidal effect (criteria 0-5) (green foxtail [7]) | J: blackgrass, herbicidal effect (criteria 0-5) (blackgrass [8]) | N: redroot pigweed, herbicidal effect (criteria 0-5) (redroot pigweed [9]) | R: persian speedwell, herbicidal effect (criteria 0-5) (persian speedwell) | herbicidal effect, H: barnyard grass (barnyard grass [10]) | other results
1 | Cc1nn(C)c(=O)c(-c2c(-c3cnccc3C(F)(F)F)sc3ccc(F)cc23)c1O [2-387] | 3 (Herbicidal rate of 40% or more and less than 70%) | 4 (Herbicidal rate of 70% or more and less than 90%) | 5 (Herbicidal rate of 90% or more (almost completely withered)) | 5 (Herbicidal rate of 90% or more (almost completely withered)) | 3 (Herbicidal rate of 40% or more and less than 70%) | 3 (Herbicidal rate of 40% or more and less than 70%) | 0 (Herbicidal rate of 5% or less (almost no effect)) | 3 (Herbicidal rate of 40% or more and less than 70%) | 5 (Herbicidal rate of 90% or more (almost completely withered)) | 4 (Herbicidal rate of 70% or more and less than 90%) | 4 (Herbicidal rate of 70% or more and less than 90%) | 3 (Herbicidal rate of 40% or more and less than 70%) | 4 (Herbicidal rate of 70% or more and less than 90%) | 5 (Herbicidal rate of 90% or more (almost completely withered)) | 5 (Herbicidal rate of 90% or more (almost completely withered)) |  | 
2 | CCCC(=O)Oc1c(C)nn(C)c(=O)c1-c1c(-c2ccc(Cl)s2)sc2ccc(F)cc12 [2-391] | 5 (Herbicidal rate of 90% or more (almost completely withered)) | 5 (Herbicidal rate of 90% or more (almost completely withered)) | 5 (Herbicidal rate of 90% or more (almost completely withered)) | 4 (Herbicidal rate of 70% or more and less than 90%) | 5 (Herbicidal rate of 90% or more (almost completely withered)) | 4 (Herbicidal rate of 70% or more and less than 90%) | 2 (Herbicidal rate of 20% or more and less than 40%) | 3 (Herbicidal rate of 40% or more and less than 70%) | 5 (Herbicidal rate of 90% or more (almost completely withered)) | 4 (Herbicidal rate of 70% or more and less than 90%) | 5 (Herbicidal rate of 90% or more (almost completely withered)) | 5 (Herbicidal rate of 90% or more (almost completely withered)) | 3 (Herbicidal rate of 40% or more and less than 70%) | 5 (Herbicidal rate of 90% or more (almost completely withered)) | 5 (Herbicidal rate of 90% or more (almost completely withered)) | 4 (Herbicidal rate of 70% or more and less than 90%) | 
3 | Cc1nn(C)c(=O)c(-c2c(-c3ccc4c(c3)OC(F)(F)O4)sc3ccc(F)cc23)c1O [2-392] | 3 (Herbicidal rate of 40% or more and less than 70%) | 0 (Herbicidal rate of 5% or less (almost no effect)) | 5 (Herbicidal rate of 90% or more (almost completely withered)) | 4 (Herbicidal rate of 70% or more and less than 90%) | 2 (Herbicidal rate of 20% or more and less than 40%) | 1 (Herbicidal rate of 5% or more and less than 20%) | 0 (Herbicidal rate of 5% or less (almost no effect)) | 1 (Herbicidal rate of 5% or more and less than 20%) | 3 (Herbicidal rate of 40% or more and less than 70%) | 5 (Herbicidal rate of 90% or more (almost completely withered)) | 4 (Herbicidal rate of 70% or more and less than 90%) | 3 (Herbicidal rate of 40% or more and less than 70%) | 0 (Herbicidal rate of 5% or less (almost no effect)) | 4 (Herbicidal rate of 70% or more and less than 90%) | 5 (Herbicidal rate of 90% or more (almost completely withered)) | 2 (Herbicidal rate of 20% or more and less than 40%) | 
4 | CCCC(=O)Oc1c(CC)nn(C)c(=O)c1-c1c(-c2ccc(C(F)(F)F)cc2)sc2ccc(F)cc12 [2-411] | 3 (Herbicidal rate of 40% or more and less than 70%) | 0 (Herbicidal rate of 5% or less (almost no effect)) | 5 (Herbicidal rate of 90% or more (almost completely withered)) | 3 (Herbicidal rate of 40% or more and less than 70%) | 0 (Herbicidal rate of 5% or less (almost no effect)) | 0 (Herbicidal rate of 5% or less (almost no effect)) | 0 (Herbicidal rate of 5% or less (almost no effect)) | 0 (Herbicidal rate of 5% or less (almost no effect)) | 0 (Herbicidal rate of 5% or less (almost no effect)) | 1 (Herbicidal rate of 5% or more and less than 20%) |  |  |  |  |  | 0 (Herbicidal rate of 5% or less (almost no effect)) | F: southern crabgrass, herbicidal effect grade (southern crabgrass [6]; [11]): 3 (Herbicidal rate of 40% or more and less than 70%); G: green foxtail, herbicidal effect grade (green foxtail [7]; [11]): 3 (Herbicidal rate of 40% or more and less than 70%); J: blackgrass, herbicidal effect grade (blackgrass [8]; [11]): 0 (Herbicidal rate of 5% or less (almost no effect)); N: redroot pigweed, herbicidal effect grade (redroot pigweed [9]; [11]): 5 (Herbicidal rate of 90% or more (almost completely withered)); R: persian speedwell, herbicidal effect grade (persian speedwell; [11]): 5 (Herbicidal rate of 90% or more (almost completely withered))
5 | COc1ccc(-c2oc3ccc(F)cc3c2-c2c(O)c(C)nn(C)c2=O)cc1 [Compound No. 9-020, 4-(5-fluoro-2-(4-methoxyphenyl)benzofuran-3-yl)-5-hydroxy-2,6-dimethylpyridazin-3(2H)-one] | 5 (Herbicidal rate of 90% or more (almost completely withered)) | 3 (Herbicidal rate of 40% or more and less than 70%) |  |  |  |  |  |  |  |  |  |  |  |  |  |  | Herbicidal effect on H (barnyard grass), foliage application (barnyard grass [1]): 5 (Herbicidal rate of 90% or more (almost completely withered)); Herbicidal effect on D (Chinese sprangletop), foliage application (Chinese sprangletop): 4 (Herbicidal rate of 70% or more and less than 90%); F: southern crabgrass, herbicidal effect grade (southern crabgrass [2]): 4 (Herbicidal rate of 70% or more and less than 90%); G: green foxtail, herbicidal effect grade (green foxtail [3]): 1 (Herbicidal rate of 5% or more and less than 20%); H: barnyard grass, herbicidal effect grade (barnyard grass [10]): 4 (Herbicidal rate of 70% or more and less than 90%); J: blackgrass, herbicidal effect grade (blackgrass [4]): 3 (Herbicidal rate of 40% or more and less than 70%); L: windgrass, herbicidal effect grade (windgrass): 2 (Herbicidal rate of 20% or more and less than 40%); N: redroot pigweed, herbicidal effect grade (redroot pigweed [5]): 5 (Herbicidal rate of 90% or more (almost completely withered)); P: chickweed, herbicidal effect grade (chickweed): 4 (Herbicidal rate of 70% or more and less than 90%); herbicidal effect on southern crabgrass (F) (southern crabgrass [6]; [11]): 4 (Herbicidal rate of 70% or more and less than 90%); herbicidal effect on green foxtail (G) (green foxtail [7]; [11]): 5 (Herbicidal rate of 90% or more (almost completely withered)); herbicidal effect on blackgrass (J) (blackgrass [8]; [11]): 4 (Herbicidal rate of 70% or more and less than 90%); herbicidal effect on persian speedwell (R) (persian speedwell; [11]): 5 (Herbicidal rate of 90% or more (almost completely withered))
